In paper PMC3342448 (Cancer Research, 2012):

Experiments:
[1] = test system: 184B5-MT cells; test: Transwell migration assay on COL-I, 184B5-MT cells; assay type: cell-based, Human; details: compounds 10–100 μM, 16–18 h
[2] = test system: MCF7-β3/MT cells; test: COL-I degradation assay, MCF7-β3/MT cells; assay type: cell-based, Human; details: compound 100 μM, 3 days
[3] = target: CAT (Homo sapiens, UniProt P50281); test: Cleavage of fluorescent peptide by MT1-MMP catalytic domain; assay type: biochemical; details: CAT 10 nM, fluorescent substrate 10 μM
[4] = target: T1, MMP-2 (Homo sapiens, UniProt P08253); test: Catalytic activity of MMP-2; assay type: biochemical; details: not shown
T1 sequence (P08253 110-660): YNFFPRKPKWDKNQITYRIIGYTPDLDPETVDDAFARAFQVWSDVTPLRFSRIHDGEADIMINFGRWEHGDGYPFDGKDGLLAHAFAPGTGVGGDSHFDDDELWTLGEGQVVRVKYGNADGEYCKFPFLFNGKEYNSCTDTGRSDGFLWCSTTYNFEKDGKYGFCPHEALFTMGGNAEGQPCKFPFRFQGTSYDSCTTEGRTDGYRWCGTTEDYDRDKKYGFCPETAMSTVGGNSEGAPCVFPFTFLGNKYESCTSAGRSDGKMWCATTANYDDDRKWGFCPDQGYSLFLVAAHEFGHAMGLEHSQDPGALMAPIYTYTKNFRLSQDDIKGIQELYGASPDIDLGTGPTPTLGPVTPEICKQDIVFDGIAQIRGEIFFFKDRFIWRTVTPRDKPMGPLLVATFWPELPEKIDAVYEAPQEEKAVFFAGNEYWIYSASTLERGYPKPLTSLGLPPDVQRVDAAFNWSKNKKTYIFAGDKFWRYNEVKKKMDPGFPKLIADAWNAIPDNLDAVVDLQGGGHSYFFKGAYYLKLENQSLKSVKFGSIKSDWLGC

[5] = target: MT1-MMP (Homo sapiens, UniProt P50281); test: Gelatin zymography of MCF7-β3/MT tumor extracts; assay type: in vivo; details: tumor extracts of mice treated 0.5 mg/kg intratumoral
[6] = test system: MCF7-β3/MT cells; test: Cell viability; assay type: cell-based, Human; details: 400 μM, 6 h
[7] = test system: MDA-MB-231 cells; test: Transwell migration assay on COL-I, MDA-MB-231 cells; assay type: cell-based, Human; details: compounds 100 μM
[8] = test system: 184B5-MT cells; test: Cell adhesion assay on COL-I and Matrigel, 184B5-MT cells; assay type: cell-based, Human; details: compounds 25–100 μM, 1 h adhesion
[9] = test system: MCF7-β3/MT xenografts; test: MCF7-β3/MT tumor xenografts in mice; assay type: in vivo
[10] = Solubility in aqueous solutions; assay type: physicochemical; details: 400 μM stock in PBS was highest reachable
[11] = target: MT1-MMP homodimerization (Homo sapiens, UniProt P50281); test: MT1-MMP dimerization test; assay type: cell-based; details: compounds 100 μM, 24 h, MCF7-MT-V5 cells transfected with MT1-MMP-FLAG
[12] = target: cellular MT1-MMP (Homo sapiens, UniProt P50281); test: Gelatin zymography of MMP-2 activation by 184B5-MT cells; assay type: cell-based; details: 184B5-MT cells with proMMP-2, compound 1–100 μM

In the case of CCCC(C)NC(=O)c1ccc(Cl)c(Cl)c1 (stereo not drawn) [compound 9], the “migration of 184B5-MT cells on COL-I” value [1] is reported as “repressed migration of 184B5-MT cells on COL-I in a dose-dependent manner”, the “collagenolytic activity (COL-I degradation) in MCF7-β3/MT cells” value [2] is reported as “dramatically reduced” and the “effect on cleavage activity of CAT” value [3] is reported as “did not affect the cleavage activity”. For the same molecule, the “catalytic activity of MMP-2” value [4] was “did not inhibit”, the “ability of MT1-MMP to activate MMP-2 in tumors” value [5] was “did not affect” and the “cytotoxicity in MCF7-β3/MT cells” value [6] was “did not demonstrate any cytotoxicity”. The “migration of MDA-MB-231 cells” value [7] was “did not show any inhibitory effect”, the “adhesion of 184B5-MT on Matrigel and COL-I substrates” value [8] was “did not affect cell adhesion” and the “physical damage and necrosis in tumors after injections” value ([9]; 0.5 mg/kg intratumoral) was “no physical damage and necrosis”. The tumor phenotype ([9]; 0.5 mg/kg intratumoral injections) was “caused a fibrotic tumor phenotype”, the “xenograft angiogenesis (H&E staining)” value ([9]; 0.5 mg/kg intratumoral, compared with control mice) was “did not reveal any significant effect” and the “immunoreactivity and levels of COL-I in tumors” value ([9]; 0.5 mg/kg intratumoral, experimental versus control) was “significantly enhanced”. The solubility [10] was “limited solubility”, the “levels of co-precipitated MT1-MMP-V5 in pull-down samples (homodimerization)” value [11] was “significantly reduced” and the “catalytic function of cellular MT1-MMP (MMP-2 activation)” value [12] was “did not inhibit”.
